The results in this text go back to paper PMC10355216, “The C-terminal tail of CSNAP attenuates the CSN complex” (Life Science Alliance, 2023).

One test concerns recombinant CSN complex. Put plainly: Peptide array screen of C-CSNAP peptides with recombinant CSN (rCSN^WT).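 For all read-outs here: densitometric signal of CSN bound to each synthesized peptide spot, with an antibody-only array lacking CSN run to exclude non-specific binding, higher values meaning stronger binding.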 To be noted: for Average fold change, intensities as fold of C-CSNAP (A1): rCSN^WT on INTAVIS Celluspots array, anti-CSN3 and HRP secondary antibody, average of six replicates (three independent experiments in duplicates); for Average fold change: peptide array with rCSN, average of 3 experiments, left and right (n = 6), fold of C-CSNAP (A1). The format is binding.

The test system of a further test is CSN^ΔCSNAP complex. Put plainly: Peptide array screen of C-CSNAP peptides with rCSN^ΔCSNAP.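 Note: Array-printed peptides incubated with 0.5 µM CSN^ΔCSNAP, bound complex detected by anti-CSN3 antibody plus HRP-linked secondary, spot intensity expressed relative to the parent reference peptide spot.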 Particulars: average of 5 experiments. The format is binding.
[1] abbreviates: peptide array, rCSN^ΔCSNAP, left and right spots.
The mark [2] stands for this setting: peptide array with rCSN^ΔCSNAP, left and right (n = 10), fold of C-CSNAP (A1).

Experimental for CSN^ΔCSNAP complex: Peptide array screen of modified C-CSNAP peptides. C-CSNAP peptide and its derivatives were printed on a microarray. The array was blocked and incubated with or without the CSN∆CSNAP complex and probed using an anti-CSN3 antibody and HRP-conjugated secondary antibody. To assess non-specific binding of the antibodies to the array, anti-CSN3 and anti-GAR-HRP were used without the addition of the COP9 signalosome complex (CSN). Signal intensity of each spot was measured and normalized to the intensity of the spot of C-CSNAP (A1). Measured values for each spot were averaged from six arrays and plotted with standard errors SEM.
(§1) Intensity values are normalized to the intensity of the 16AA C-CSNAP peptide (A1) on each array from three independent experiments in duplicates, and averages from the six replicates are calculated with SEM.
(§2) Optimization of C-CSNAP sequence for enhanced binding to recombinant CSN^ΔCSNAP was screened by printing the modified sequences of CSNAP or C-CSNAP (Phe to Trp, Asp to Glu, Ala screen, D-amino acid screen, N-α-methylation, and Aib incorporation on INTAVIS Celluspots array [2 × 384spots]). The array was blocked with 5% skim milk in TBS-0.5% Tween 20 (TBS-T) for 4 h at room temperature, washed three times in TBS-T, and then incubated with 0.5 μM CSN^ΔCSNAP in 5% milk–TBS-T. Bound CSN^ΔCSNAP was visualized by incubating with anti-CSN3 (ab79698) antibody (1:10,000, overnight) and goat-anti-rabbit-HRP secondary antibody (1:10,000, 1 h).
Experimental for recombinant CSN complex: To generate an optimized C-CSNAP peptide, we used the peptide array methodology. The array was designed to screen for the optimal peptide length, sequence, and stability (Fig 3A). A recombinant CSN complex was expressed, purified, and screened for binding to the peptide array by using an anti-CSN3 antibody. To rule out non-specific binding of the probing antibody, a control experiment was carried out without the addition of the CSN complex (Fig 3A right panel).
C-CSNAP peptide and its derivatives were synthesized on a microarray. The array was blocked and incubated with or without the COP9 signalosome complex (CSN) and probed using an anti-CSN3 antibody and HRP-conjugated secondary antibody. To assess non-specific binding of the antibodies to the array, anti-CSN3 and anti-GAR–HRP were used without the addition of the CSN. Signal intensity of each spot was measured and normalized to the intensity of the spot of C-CSNAP (A1). Measured values for each spot were averaged from six arrays and plotted with SEM. […] (A) A representative image of the peptide array (left) and the background (right). (B) Elongation of the C-terminal 16 amino acids (green) with one residue at a time based on the full-length sequence. […] (F) Single D-amino acid substitution at various positions.
as §1, §2

As for “DFFNDFEELFEDEDIQ [Position E18, C-CSNAP, Asp to Glu substitution D49,52,54E]”, the “Average fold change, intensities as fold of C-CSNAP (A1)” value (shortened to “Average fold change, intensities”) in the test on recombinant CSN complex is listed as 0.6310 fold of C-CSNAP (A1). Also, the Average fold change in the test with CSN^ΔCSNAP complex (setting [1]) is on record as 0.9681 fold of C-CSNAP (A1).
For “EFFNEFEDLFDEDDIQ [E 6, C-CSNAP, Asp to Glu substitution D42,46,53E]” the same measures were 0.7001 fold of C-CSNAP (A1) and 0.9657 fold of C-CSNAP (A1).
As for “DFFNDFEDLFEDDEIQ [E 3, C-CSNAP, Asp to Glu substitution D52,55E]”, the “Average fold change, intensities” value in the test on recombinant CSN complex was 0.8879 fold of C-CSNAP (A1). Further, the Average fold change in the test with CSN^ΔCSNAP complex (setting [1]) was 0.8137 fold of C-CSNAP (A1).
For the sequence EFFNDFEDLFEEEDIQ [D42,52,53,54E], the Average fold change in the test on recombinant CSN complex is recorded as 0.7432 fold; in the test with CSN^ΔCSNAP complex (setting [1]) it was 1.1111 fold of C-CSNAP (A1).
With “DFFNDFEELFEEDDIQ [Position E17, C-CSNAP, Asp to Glu substitution D49,52,53E]”, the “Average fold change, intensities” value with recombinant CSN complex was 0.6206 fold of C-CSNAP (A1). Moreover, the Average fold change in the test on CSN^ΔCSNAP complex (setting [1]) is listed as 1.2373 fold of C-CSNAP (A1).
Consider EFFNEFEELFDDDEIQ [D42,46,49,55E], for which the values for the Average fold change with recombinant CSN complex and with CSN^ΔCSNAP complex (setting [1]) were 0.5938 fold and 0.8257 fold of C-CSNAP (A1), respectively.
On to “DFFNEFEDLFEDDDIQ [Position D17, C-CSNAP, Asp to Glu substitution D46,52E]”, for which the “Average fold change, intensities” value in the test with recombinant CSN complex was 0.7655 fold of C-CSNAP (A1). Besides, the Average fold change with CSN^ΔCSNAP complex (setting [1]) is recorded as 1.1441 fold of C-CSNAP (A1).
As to EFFNDFEELFEEEEIQ [D42,49,52,53,54,55E], the figures for the Average fold change in the test on recombinant CSN complex and in the test with CSN^ΔCSNAP complex (setting [1]) were 0.6132 fold and 0.9207 fold of C-CSNAP (A1), respectively.
Regarding “DFWNDWEDLWDDDDIQ [Position C22, C-CSNAP, Phe to Trp substitution F44,47,51W]”, in the test on recombinant CSN complex, the “Average fold change, intensities” value was 0.6112 fold of C-CSNAP (A1). Also, the Average fold change in the test on CSN^ΔCSNAP complex (setting [1]) is given as 1.2126 fold of C-CSNAP (A1).
“EFFNDFEDLFDDEDIQ [Position D14, C-CSNAP, Asp to Glu substitution D42,54E]”: the “Average fold change, intensities” value in the test with recombinant CSN complex is given as 0.7060 fold of C-CSNAP (A1). Also, the Average fold change in the test with CSN^ΔCSNAP complex (setting [1]) was 1.0310 fold of C-CSNAP (A1).
For the sequence “EFFNEFEELFDDDDIQ [E 4, C-CSNAP, Asp to Glu substitution D42,46,49E]”, the “Average fold change, intensities” value in the test with recombinant CSN complex was 0.8374 fold of C-CSNAP (A1). Moreover, the Average fold change in the test with CSN^ΔCSNAP complex (setting [1]) is reported as 0.8106 fold of C-CSNAP (A1).
Consider “DAFNDFEDLFDDDDIQ [Position B21, C-CSNAP, Ala substitution F43A]”, for which the “Average fold change, intensities” value in the test with recombinant CSN complex is 0.8509 fold of C-CSNAP (A1). Moreover, the Average fold change with CSN^ΔCSNAP complex (setting [2]) is reported as 1.1048 fold.
As for “DFFNDFEDLFEEDDIQ [E 1, C-CSNAP, Asp to Glu substitution D52,53E]”, in the test with recombinant CSN complex, the “Average fold change, intensities” value is on record as 0.6914 fold of C-CSNAP (A1). Further, in the test with CSN^ΔCSNAP complex (setting [1]), the Average fold change is 1.1244 fold of C-CSNAP (A1).
For “DWFNDWEDLWDDDDIQ [Position C23, C-CSNAP, Phe to Trp substitution F43,47,51W]” the same measures were 0.4941 fold of C-CSNAP (A1) and 0.6854 fold of C-CSNAP (A1).
For the sequence EFFNDFEELFEDDEIQ [D42,49,52,55E], the Average fold change in the test with recombinant CSN complex is listed as 0.7529 fold; in the test with CSN^ΔCSNAP complex (setting [1]) it was 0.9030 fold of C-CSNAP (A1).
Regarding “DFFNDFEELFDDEDIQ [Position D23, C-CSNAP, Asp to Glu substitution D49,54E]”, the “Average fold change, intensities” value in the test with recombinant CSN complex was 0.5825 fold of C-CSNAP (A1). Also, the Average fold change with CSN^ΔCSNAP complex (setting [1]) is recorded as 1.0923 fold of C-CSNAP (A1).
“VHADFFNDFEDLFDDDDIQ [A 4, CSNAP residues 39-57]”: in the test on recombinant CSN complex, the “Average fold change, intensities” value is 1.1190 fold of C-CSNAP (A1). Besides, the Average fold change in the test with CSN^ΔCSNAP complex (setting [2]) is recorded as 0.9552 fold.
Regarding “DFFNEFEELFDEDDIQ [Position E14, C-CSNAP, Asp to Glu substitution D46,49,53E]”, the “Average fold change, intensities” value in the test on recombinant CSN complex is on record as 0.6197 fold of C-CSNAP (A1). Besides, the Average fold change with CSN^ΔCSNAP complex (setting [1]) is 0.9920 fold of C-CSNAP (A1).
For the sequence “DLAANEKAVHADFFNDFEDLFDDDDIQ [Position A12, CSNAP residues 31-57]”, in the test on recombinant CSN complex, the “Average fold change, intensities” value is 0.9978 fold of C-CSNAP (A1). For the same sequence, the Average fold change in the test on CSN^ΔCSNAP complex (setting [2]) came out at 1.0405 fold.
The matching figures for “EGAGPYVDLDEAGGSTGLLMDLAANEKAVHADFFNDFEDLFDDDDIQ [B 8, CSNAP residues 11-57]”: 0.8775 fold of C-CSNAP (A1) and 0.9764 fold.
As for “DFFNDFEDLFEDDDIQ [D 6, C-CSNAP, Asp to Glu substitution D52E]”, the “Average fold change, intensities” value with recombinant CSN complex was 0.9809 fold of C-CSNAP (A1). Further, in the test on CSN^ΔCSNAP complex (setting [1]), the Average fold change is 1.1581 fold of C-CSNAP (A1).
For “DFFNEFEDLFDDDDIQ [D 4, C-CSNAP, Asp to Glu substitution D46E]” the same measures were 1.0255 fold of C-CSNAP (A1) and 1.0457 fold of C-CSNAP (A1).
Consider DFFNDFEDLFEEEEIQ [D52,53,54,55E], for which the Average fold change with recombinant CSN complex is 0.7255 fold; in the test with CSN^ΔCSNAP complex (setting [1]), 1.3020 fold of C-CSNAP (A1).
“EFFNDFEELFEDDDIQ [E 9, C-CSNAP, Asp to Glu substitution D42,49,52E]”: in the test with recombinant CSN complex, the “Average fold change, intensities” value was 0.6782 fold of C-CSNAP (A1). Moreover, the Average fold change with CSN^ΔCSNAP complex (setting [1]) is listed as 1.0112 fold of C-CSNAP (A1).
With DFFNEFEELFEDDEIQ [D46,49,52,55E], the values for the Average fold change with recombinant CSN complex and in the test on CSN^ΔCSNAP complex (setting [1]) were 0.6253 fold and 1.1176 fold of C-CSNAP (A1), respectively.
For EFFNEFEELFEDEEIQ [D42,46,49,52,54,55E] the same measures were 0.2605 fold and 1.1157 fold of C-CSNAP (A1).
In the case of “DFFNEFEELFDDDEIQ [Position E16, C-CSNAP, Asp to Glu substitution D46,49,55E]”, in the test with recombinant CSN complex, the “Average fold change, intensities” value was 0.6983 fold of C-CSNAP (A1). Besides, the Average fold change in the test with CSN^ΔCSNAP complex (setting [1]) is 0.9545 fold of C-CSNAP (A1).
As to “EFFNDFEELFDEDDIQ [Position E10, C-CSNAP, Asp to Glu substitution D42,49,53E]”, in the test with recombinant CSN complex, the “Average fold change, intensities” value is reported as 0.6945 fold of C-CSNAP (A1). In the test on CSN^ΔCSNAP complex (setting [1]), the Average fold change is given as 1.1579 fold of C-CSNAP (A1).
As for “DFFNEFEELFDDEDIQ [Position E15, C-CSNAP, Asp to Glu substitution D46,49,54E]”, in the test with recombinant CSN complex, the “Average fold change, intensities” value is recorded as 0.5680 fold of C-CSNAP (A1). Also, in the test with CSN^ΔCSNAP complex (setting [1]), the Average fold change is reported as 0.8747 fold of C-CSNAP (A1).
Take “DFFNDFEDLFDDDDAQ [Position C10, C-CSNAP, Ala substitution I56A]”: the “Average fold change, intensities” value with recombinant CSN complex is reported as 1.1392 fold of C-CSNAP (A1). Moreover, the Average fold change with CSN^ΔCSNAP complex (setting [2]) was 1.2151 fold.
As to DFFNEFEELFEEDDIQ [D46,49,52,53E], the Average fold change is recorded as 0.5885 fold with recombinant CSN complex and 0.8013 fold of C-CSNAP (A1) in the test on CSN^ΔCSNAP complex (setting [1]).
Consider “DWFNDFEDLFDDDDIQ [Position C12, C-CSNAP, Phe to Trp substitution F43W]”, for which, in the test on recombinant CSN complex, the “Average fold change, intensities” value is listed as 0.7756 fold of C-CSNAP (A1). In addition, in the test on CSN^ΔCSNAP complex (setting [1]), the Average fold change is listed as 1.2910 fold of C-CSNAP (A1).
For “EFFNDFEELFDDEDIQ [Position E11, C-CSNAP, Asp to Glu substitution D42,49,54E]” the same measures were 0.6850 fold of C-CSNAP (A1) and 0.8932 fold of C-CSNAP (A1).
As for EFFNEFEELFEEDDIQ [D42,46,49,52,53E], the Average fold change with recombinant CSN complex was 0.6954 fold; in the test with CSN^ΔCSNAP complex (setting [1]), 1.2332 fold of C-CSNAP (A1).
